Measured values: patent US9599603B2, “Methods and compositions for modulating adhesion and migration of cadherin expressing cells” (Case Western Reserve University, priority 2008, dated 2017)

Assays:
Type in all cases: cell-based
N-cadherin [1] = target: T1, N-cadherin (Homo sapiens, UniProt P19022); assay: RGC neurite outgrowth on N-cadherin substrate (antagonist screen); conditions: ADH-1 vs vehicle control (FIG. 16A)
T1 construct: Fc (C); purchased R&D Systems
Experimental: Sterile 35 mm tissue culture dishes for retinal explants were coated with nitrocellulose in methanol and allowed to dry, before spreading 0.04-0.045 μg/plate of human N-cadherin-Fc (R&D Systems, Minneapolis, Minn.) across the center of each dish. Remaining binding sites on the nitrocellulose were blocked with 2% bovine serum albumin (BSA; Sigma, St. Louis, Mo.) in calcium/magnesium free phosphate buffer (CMF), and the dishes were rinsed with RPMI-1640 medium (HyClone, Logan, Utah). Cultures of retinal explants from embryonic day 8 chick were made as previously described in. Retinal explants were grown in RPMI-1640, 10% fetal bovine serum (HyClone), 2% chick serum (Invitrogen, Carlsbad, Calif.), 100 U/ml penicillin, 0.1 mg/ml streptomycin and 0.025 μg/ml amphotericin (Sigma). […] Neurite outgrowth was evaluated approximately 20 hours after plating. […] If outgrowth was affected, subsequent experiments determined the minimum concentration to affect outgrowth. […]
Neurite outgrowth was examined on a Nikon TE-200 inverted microscope (Tokyo, Japan), using a 10× objective. […] Subsequently measurements of neurite length and density were quantitated using the images. Length of the five longest neurites per explant was measured using MetaMorph version 6.3r4 (Molecular Devices, Downington Pa.). […] Control and experimental conditions were analyzed using the same thresholding parameters. […]

N-cadherin [2] = target: T1, N-cadherin; assay: LN-229 glioblastoma cell adhesion to N-cadherin substrate; conditions: dose of 1 mM, 2 h adhesion
Experimental: (§1) Sterile 35 mm tissue culture dishes were coated with nitrocellulose in methanol and allowed to dry. Distinct spots, containing 50 ng of either purified Laminin (Sigma) or N-cadherin-Fc (R&D Systems), were made by spotting 10 μl of protein solution on the nitrocellulose-coated tissue culture dishes. Each dish contained two distinct spots of both Laminin and N-cadherin-Fc. After a 20-min incubation at room temperature, the protein solutions were aspirated. Remaining binding sites on the nitrocellulose were blocked with 2% BSA in PBS, and the dishes were rinsed with DMEM (Invitrogen).
(§2) LN-229 (American Type Culture Collection, Manassus, Va.) cells plated the previous day in 100 mm tissue culture dishes and grown to 80% confluence were released with 2 mM EDTA in CMF. 4×10^5 cells were added to each tissue culture dish in the presence of N-cadherin peptidomimetic small molecules, reconstituted in either DMSO or 0.3% cyclodextrin, and diluted in DMEM supplemented with 10% fetal bovine serum (HyClone). […]
(§3) Adherent cells were detected by phase contrast light microscopy using a 20× objective on a Nikon TE-200 inverted microscope. […] The number of adherent cells per image was determined using threshold parameters in MetaMorph that highlighted individual cells that spread on the substrate spots. […] Data from control and experimental conditions were evaluated using the same thresholding parameters. […]

Laminin = assay: LN-229 glioblastoma cell adhesion to Laminin substrate (specificity control); conditions: 1 mM ADH-1, compared to control
Experimental: as §1, §2, §3

T1 sequence (P19022 with tags, fused parts or gaps limits assumed): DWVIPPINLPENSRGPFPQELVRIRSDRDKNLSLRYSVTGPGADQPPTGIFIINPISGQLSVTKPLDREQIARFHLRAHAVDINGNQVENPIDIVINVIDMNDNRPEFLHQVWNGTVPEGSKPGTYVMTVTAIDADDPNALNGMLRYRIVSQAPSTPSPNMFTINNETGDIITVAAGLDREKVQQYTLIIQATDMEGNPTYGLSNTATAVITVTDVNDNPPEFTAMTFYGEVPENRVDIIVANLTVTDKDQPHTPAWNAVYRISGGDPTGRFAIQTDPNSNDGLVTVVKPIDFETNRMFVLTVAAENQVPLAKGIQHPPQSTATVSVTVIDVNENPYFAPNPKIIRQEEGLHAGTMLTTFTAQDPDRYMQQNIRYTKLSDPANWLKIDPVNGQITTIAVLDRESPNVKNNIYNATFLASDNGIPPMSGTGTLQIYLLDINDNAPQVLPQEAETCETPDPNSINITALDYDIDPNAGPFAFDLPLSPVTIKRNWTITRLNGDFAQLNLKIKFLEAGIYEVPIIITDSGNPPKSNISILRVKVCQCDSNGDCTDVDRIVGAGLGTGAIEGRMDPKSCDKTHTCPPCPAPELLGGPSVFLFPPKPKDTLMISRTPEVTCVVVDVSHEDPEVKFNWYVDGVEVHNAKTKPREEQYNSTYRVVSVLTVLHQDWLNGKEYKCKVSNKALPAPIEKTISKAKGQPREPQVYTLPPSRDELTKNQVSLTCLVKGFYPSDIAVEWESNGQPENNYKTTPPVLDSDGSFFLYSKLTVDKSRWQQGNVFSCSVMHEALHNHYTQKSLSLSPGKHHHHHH

CC(=O)N[C@H]1CSSC[C@@H](C(N)=O)NC(=O)[C@H](C(C)C)NC(=O)[C@H](C)NC(=O)[C@H](Cc2c[nH]cn2)NC1=O [ADH-1, N-Ac-CHAVC-NH2]
effect on RGC neurite outgrowth on a substrate of N-cadherin (N-cadherin [1]): eliminate RGC neurite outgrowth
adhesion of LN-229 cells to an N-cadherin substrate (N-cadherin [2]): 46 % of control
LN-229 adhesion to Laminin (Laminin): unaffected
